The values that follow come from patent US20220242812A1, “SWELL1-LRRC8 COMPLEX MODULATORS” (Washington University, priority 2019, published 2022).

The target of series [1] is T1, SWELL1-LRRC8 channel (ICl,SWELL) in HEK-293 cells (Homo sapiens, UniProt Q8IWT6).
T1 construct: endogenous in cells; host or cells: HEK-293 (ATCC CRL-1573)
The experiment in a line: ICl,SWELL inhibition after hypotonic activation, patch-clamp in HEK-293 cells. In kind it is cell-based. The protocol: Mean presented±SEM. Two-tailed unpaired t-test was used. *, **, and *** represents p<0.05, p<0.01 and p<0.001, respectively.
Patch-clamp recordings of β-cells and mature adipocytes were performed as described previously (Kang et al., 2018; Zhang et al., 2017). 3T3-F442A WT and KO preadipocytes were prepared as described in the Cell culture section above. For SWELL1 overexpression recordings, preadipocytes were first transduced with Ad5-CAG-LoxP-stop-LoxP-3×Flag-SWELL1 (MOI 12) in 2% FBS culture medium for two days and then overexpression induced by adding Ad5-CMV-Cre-wt-lRES-eGFP (MOI 10-12) in 2% FBS culture medium for two more days and changed to 10% FBS containing culture media and were selected based on GFP expression (˜2-3 days). For cell recordings, islets were transduced with Ad-RIP2-GFP and then dispersed after 48-72 hours for patch-clamp experiments. GFP+ cells marked β-cells selected for patch-clamp recordings. […] Recordings were measured using […] amplifier paired to a Digidata 1550 digitizer using pClamp 10.4 software. The extracellular buffer composition for hypotonic stimulation contains 90 mM NaCl, 2 mM CsCl, 1 mM MgCl, 1 mM CaCb, 10 mM HEPES, 10 mM Mannitol, pH 7.4 with NaOH (210 mOsm/kg). The extracellular isotonic buffer composition is same as above except for Mannitol concentration of 110 mM (300 mOsm/kg). The composition of intracellular buffer is 120 mM L-aspartic acid, 20 mM CsCl, 1 mM MgCl, 5 mM EGTA, 10 mM HEPES, 5 mM MgATP, 120 mM CsOH, 0.1 mM GTP, pH 7.2 with CsOH. All recordings were carried out at room temperature (RT) with HEK-293 cells, β-cells and 3T3-F442A cells performed in whole-cell configuration and human adipocytes in perforated-patch configuration, as previously described (Kang et al., 2018; Zhang et al., 2017).
(In patch-clamp work, channel activity is measured electrically.)

In series [2] the test system is endogenous SWELL1 plasma membrane localization. In kind it is cell-based. Conditions: 3T3-F442A preadipocytes, 1 or 10 μM 48 h, compared to vehicle or SN071. The protocol:
3T3-F442A preadipocytes (WT, KO) and differentiated adipocytes without or with SWELL1 overexpression (WT+SWELL1 O/E, KO+SWELL1 O/E) were prepared as described in the Cell culture section on collagen coated coverslips. […] Either anti-SWELL1 (1:400) or anti-Flag (1:1500, Sigma #F3165) antibody were added to the cells and incubated overnight at 4° C. The cells were then washed three times (1×PBS) prior and post to the addition of 1:1000 Alexa Flour 488/568 secondary antibody (anti-rabbit, #A11034 or anti-mouse, #A11004) for 1 hour at RT. Cells were counterstained with nuclear TO-PRO-3 (Life Technologies, #T3605) or DAPI (Invitrogen, #D1306) staining (1 μM) for 20 min followed by three washes with 1×PBS. Coverslips were further mounted on slides with Prolong Diamond anti-fading media. All images were captured using Zeiss LSM700/LSM510 confocal microscope with 63× objective (NA 1.4). SWELL1 membrane localization was quantified by stacking all the z-images and converting it into a binary image where the cytoplasmic intensity per unit area was subtracted from the total cell intensity per unit area using ImageJ software.

The nature of series [3]: Caco-2 permeability assay. In kind it is in vitro ADME. Conditions: human, Caco-2; for Papp at 2 h: apparent permeability, read-out: Caco-2 10^−6 cm/s. Here is the method: (§1) In vitro ADMET studies were performed at Charles River Laboratory as outlined below. For the Caco-2 permeability assay, the cells were cultured (DMEM, 10% FBS, 1% L-Glutamax and 1% PenStrep) for 21 days. HBSS was used as the transport buffer and the TEER measurements were taken before the start of the assay. Compounds were added apical side to determine apical to basolateral transport (A-B) and basal side to determine basolateral to apical transport (B-A). Samples (10 μL) were collected at time 0 and 2 h and diluted (5×) with transport buffer. After the quenching reaction, the samples were further diluted in MilliQ water for bioanalysis. The TEER measurements were carried out at the end of the assay and wells with significant decrease in post-assay TEER values were not included in the data and repeated again. The analyte levels (peak area ratios) were measured on apical (A) and basolateral (B) sides at To and T2h-A-B and B-A fluxes were calculated averaging 3 individual measurements. Apparent permeability (Papp, cm/sec) was calculated as dQ (flux)/(dt*area*concentration). The efflux ratio was calculated by Papp(B-A)/[…]. For the microsomal metabolic stability assay, the microsomes were diluted in potassium phosphate buffer to maintain at a final concentration of 0.5 mg/ml in the assay procedure. The compounds were diluted 10-fold in acetonitrile and incubated with the microsomes at 37° C. with gentle shaking. Samples were collected at different timepoints and quenched. The samples were mixed by vortexing for 10 min and centrifuged at 3100 rpm for 10 min at 4° C. The supernatant was diluted in water and further analyzed in LC/MS autosampler. Half-life (T1/2) was calculated by the formula 0.692/slope where slope is ln(% remaining relative to Tzero vs time). Intrinsic clearance was calculated using the (CLn1)=T112*1/initial concentration*mg prep/g liver*g liver/kg body weight. For the cytochrome P450 inhibition assay, the cofactors and substrate were mixed in Potassium phosphate buffer. A stock concentration of 10 mM compounds (in DMSO) were diluted 5-fold in acetonitrile and mixed with cofactor/substrate mixture (2×). Human liver microsomes were diluted in Potassium phosphate buffer for a final concentration (2×) of 0.2 mg/ml and the reaction was initiated by mixing the microsomes with the compound/cofactor/substrate mixture at 37° C. with gentle shaking. Samples were collected at To and T30 min timepoints and quenched. The samples were then centrifuged at 3100 rpm for 5 min at 5-10° C. and the supernatant was diluted in water and further analyzed in LC/MS autosampler. % inhibition was calculated (using peak area ratios) relative to zero inhibition (full activity) and no activity (full inhibition).
For orientation: Passage across Caco-2 layers is used to estimate intestinal permeability.

In series [4] the test system is Caco-2 cell monolayer. Nature of the series: Caco-2 permeability assay. It is filed as in vitro ADME. The protocol:
as §1

Series [5] is described as follows: Microsomal metabolic stability assay. It is filed as in vitro ADME. As to conditions: human liver microsomes; read-out: Human hepatic microsome stability Clintrinsic. Here is the method:
In vitro ADMET studies were performed at Charles River Laboratory as outlined below. For the Caco-2 permeability assay, the cells were cultured (DMEM, 10% FBS, 1% L-Glutamax and 1% PenStrep) for 21 days. HBSS was used as the transport buffer and the TEER measurements were taken before the start of the assay. Compounds were added apical side to determine apical to basolateral transport (A-B) and basal side to determine basolateral to apical transport (B-A). Samples (10 μL) were collected at time 0 and 2 h and diluted (5×) with transport buffer. After the quenching reaction, the samples were further diluted in MilliQ water for bioanalysis. […] The analyte levels (peak area ratios) were measured on apical (A) and basolateral (B) sides at To and T2h-A-B and B-A fluxes were calculated averaging 3 individual measurements. Apparent permeability (Papp, cm/sec) was calculated as dQ (flux)/(dt*area*concentration). The efflux ratio was calculated by Papp(B-A)/Papp(B-A). […] The supernatant was diluted in water and further analyzed in LC/MS autosampler. Half-life (T1/2) was calculated by the formula 0.692/slope where slope is ln(% remaining relative to Tzero vs time). Intrinsic clearance was calculated using the (CLn1)=T112*1/initial concentration*mg prep/g liver*g liver/kg body weight. […]
Background: Liver microsomes are a subcellular fraction often used to study metabolism.

The target in series [6] is T2, CYP 2D6 (Homo sapiens, UniProt P10635).
T2 construct: Human liver microsomes were diluted in Potassium phosphate buffer; tissue Charles River Laboratory (performed the study); host or cells: human liver microsomes
The experiment in a line: Cytochrome P450 inhibition assay, CYP 2D6. It is filed as in vitro ADME. As to conditions: human liver microsomes.

Molecules are shown by their SMILES. “Also recorded” adds a separate entry of the source. Read-outs that look alike come from different tables or passages of the source.

As to `CCCCC1(C2CCCC2)Cc2cc(OCCCC(=O)O)c(Cl)c(Cl)c2C1=O` (stereo not shown) [SN-401, 4-((2-butyl-6,7-dichloro-2-cyclopentyl-1-oxo-2,3-dihydro-1H-inden-5-yl)oxy)butanoic acid], the “Concentration required for inhibiting activated SWELL1-LRRC8” value in series [1] (upon hypotonic stimulation) was roughly 10 µM. Besides, in series [2], the “Plasma membrane (PM) localization of endogenous SWELL1” value is listed as “enhanced”. Further, the Papp at 2 h in series [3] came to 8.24 ×10⁻⁶ cm/s. The Caco-2 permeability ranking result in series [4] is on record as “Higher”. Moreover, in series [4] (Caco-2), the Caco-2 efflux ranking result was “Not”. Moreover, the “Caco-2 cell monolayer permeability” value in series [4] (in words) is on record as “good”. The CLint scaled in series [5] was 72.7 mL/min/kg. Also, the IC50 in series [6] was greater than 10 µM.
With `CCCCC1(C2CCCC2)Cc2cc(OCCCCCC(=O)O)c(Cl)c(Cl)c2C1=O` (stereo not shown) [SN-406, 6-((2-butyl-6,7-dichloro-2-cyclopentyl-1-oxo-2,3-dihydro-1H-inden-5-yl)oxy)hexanoic acid], the “On-target inhibition of ICl,SWELL” value in series [1] (HEK-293 cells, hypotonic (210 mOsm), 10 and 7 μM, relative to SN-401) was “maintained or enhanced; also recorded: increase”. Besides, the “Plasma membrane (PM) localization of endogenous SWELL1” value in series [2] is listed as “enhanced”. In addition, in series [3], the Papp at 2 h came out at 1.93 ×10⁻⁶ cm/s. Moreover, the efflux ratio at 2 h in series [3] (read-out: Caco-2 efflux ratio B-A/A-B) is 1.58. Moreover, in series [4], the Caco-2 efflux ranking result was “Not” and the Caco-2 permeability ranking result was “Higher”. Moreover, the CLint scaled in series [5] was 46.4 mL/min/kg. Also, the IC50 in series [6] is greater than 10 µM.

One may read the IC50 as the concentration that inhibits the measured activity by half. Read a high IC50 as weaker potency in that assay.
